{"source": "patent US4255435A", "about": "“Triazole compounds” (priority 1980, dated 1981)", "key": {"aphid Megoura viciae": {"tested_on": "aphid Megoura viciae", "experiment": "Aphids on sprayed broad bean plants", "type": "in vivo", "settings": "Table 6; sprayed infested broad bean plants, 24 hours", "experimental": "Broad bean plants 3 to 5 cm. high were infested with aphids and then sprayed with an aqueous dispersion containing varying concentrations of test compound. Each plant was kept under a lamp glass for 24 hours and then examined. In this way an LD50 value for the compounds was calculated."}, "[1]": {"tested_on": "larvae of the codling moth (Cydia pomonella)", "experiment": "Codling moth larvae on sprayed apple (number of strikes)", "type": "in vivo", "settings": "Table 5, after five days, two replicates, 7200 min", "description": "This example illustrates the activity of compounds of the invention against the larvae of the codling moth (Cydia pomonella).\nAn apple sprayed with test solution was allowed to dry and a perspex ring of 1 inch diameter was attached to the apple. Ten larvae were then placed on the apple surface and contained within the ring by means of a muslin covering. After five days an assessment of mortality was made by counting the number of strikes (i.e. the number of entry holes) made by the larvae."}, "[2]": {"tested_on": "larvae of the diamond back moth (Plutella maculipennis)", "experiment": "Mortality of larvae of the diamond back moth on treated cabbage leaf", "type": "in vivo", "settings": "Table 1; cabbage leaf dipped in test solution, mortality after 24 + 24 hours, two replicates; 2880 min", "experimental": "(§1) Ten larvae were placed in a tube together with a square inch of cabbage leaf which had been dipped in the test solution and allowed to dry. After twenty-four hours untreated cabbage was added for food and after a further twenty-four hours an assessment was made of the mortality of the larvae.\nTwo replicates were carried out for each test compound and test solutions of varying concentrations employed so that an LD50 value could be calculated."}, "[3]": {"tested_on": "larvae of the cabbage white butterfly (Pieris brassicae)", "experiment": "Mortality of larvae of the cabbage white butterfly on treated cabbage leaf", "type": "in vivo", "settings": "Table 3; cabbage leaf dipped in test solution, mortality after 24 + 24 hours, two replicates; 2880 min", "experimental": "This example illustrates the activity of compounds of the invention against larvae of the cabbage white butterfly (Pieris brassicae).\nas §1"}, "insects": {"tested_on": "insects", "experiment": "Insecticidal activity", "type": "in vivo", "settings": "in words"}, "Mammalian toxicity": {"experiment": "Mammalian toxicity", "type": "in vivo", "settings": "in words"}, "[4]": {"settings": "acute"}, "[5]": {"tested_on": "nematode Meloidogyne incognita incognita", "experiment": "Root knots of tomato plants in nematode-infested treated soil", "type": "in vivo", "settings": "100 parts per million per unit volume of soil, 30° C., ten days; untreated controls average more than 20 knots", "experimental": "This example illustrates the activity of compounds of the invention against the nematode Meloidogyne incognita incognita.\nSmall tomato plants were transferred to containers with infested soil. Sufficient test compound to give a concentration of 100 parts per million per unit volume of soil was poured onto the soil and the containers suspended in warm water at 30° C.\nAfter ten days the plants were knocked out of the containers and the roots washed clean, the number of knots being noted. The latter was an indication of activity and a low score indicated high activity."}, "[6]": {"tested_on": "eggs of the cabbage root fly (Erioischia brassicae)", "experiment": "Egg hatch of cabbage root fly eggs in test solution", "type": "in vivo", "settings": "Table 4; eggs stored six days, egg hatch counted, two replicates; 8640 min", "description": "This example illustrates the activity of compounds of the invention against the eggs of the cabbage root fly (Erioischia brassicae).\nThe eggs were then stored for six days and the egg hatch then counted."}, "[7]": {"settings": "acute", "remark": "listed apart in the source"}}}
{"compound": "1(2)-N,N-dimethylcarbamoyl-3-isopropyl-5-methylthio-1,2,4-triazole [methyl methyl isopropyl methyl]", "values": [{"measurement": "ACTIVITY LD50", "setting": "aphid Megoura viciae", "value": 1.1, "unit": "p.p.m."}, {"measurement": "ACTIVITY LD50", "setting": "[1]", "value": 37, "unit": "p.p.m."}, {"measurement": "ACTIVITY LD50", "setting": "[2]", "value": 160, "unit": "p.p.m."}, {"measurement": "ACTIVITY LD50", "setting": "[3]", "value": 59, "unit": "p.p.m."}]}
{"compound": "1(2)-N,N-dimethylcarbamoyl-3-t-butyl-5-but-2-enylthio-1,2,4-triazole [methyl methyl t-butyl but-2-enyl]", "values": [{"measurement": "insecticidal activity", "setting": "insects", "value": "high insecticidal activity"}, {"measurement": "ACTIVITY LD50", "setting": "aphid Megoura viciae", "value": 0.19, "unit": "p.p.m."}, {"measurement": "mammalian toxicity", "setting": "Mammalian toxicity", "value": "low mammalian toxicity"}, {"measurement": "mammalian toxicity when presented as a powder formulation", "setting": "Mammalian toxicity; (wettable) powder formulation, listed as first compound", "value": "sufficiently low"}, {"measurement": "mammalian toxicity when presented as a powder formulation", "setting": "Mammalian toxicity; wettable powder formulation", "value": "sufficiently low mammalian toxicity"}, {"measurement": "Oral toxicity (mouse) LD50", "setting": "[4]", "value": "80 to 160", "unit": "mg/kg"}, {"measurement": "ACTIVITY LD50", "setting": "[1]", "value": 10, "unit": "p.p.m."}, {"measurement": "ACTIVITY LD50", "setting": "[2]", "value": 220, "unit": "p.p.m."}, {"measurement": "number of knots on roots", "setting": "[5]", "value": "≤ 2", "unit": "knots"}, {"measurement": "ACTIVITY LD50", "setting": "[3]", "value": 27, "unit": "p.p.m."}, {"measurement": "ACTIVITY LD50", "setting": "[6]", "value": 1.2, "unit": "p.p.m."}, {"measurement": "Dermal toxicity (rat) LD50", "setting": "acute, dermal, rat", "value": 40, "unit": "mg/kg"}, {"measurement": "effect of wettable powder formulation on dermal toxicity", "setting": "in words, wettable powder formulation", "value": "reduces the dermal toxicity"}, {"measurement": "Oral toxicity (rat) LD50", "setting": "[7]", "value": "40 to 80", "unit": "mg/kg"}]}
{"compound": "CSc1nc(C(C)(C)C)nn1C(=O)N(C)C", "note": "[methyl methyl t-butyl methyl, 1-N,N-dimethylcarbamoyl-3-t-butyl-5-methylthio-1,2,4-triazole]", "values": [{"measurement": "insecticidal activity", "setting": "insects", "value": "insecticidally active"}, {"measurement": "mammalian toxicity", "setting": "Mammalian toxicity", "value": "too high to permit the more widespread use"}, {"measurement": "number of knots on roots", "setting": "[5]", "value": "≤ 2", "unit": "knots"}]}
{"compound": "C#CCSc1nc(C(C)(C)C)nn1C(=O)N(C)C", "note": "[methyl methyl t-butyl prop-2-ynyl, 1(2)-N,N-dimethylcarbamoyl-3-t-butyl-5-prop-2-ynylthio-1,2,4-triazole]", "values": [{"measurement": "ACTIVITY LD50", "setting": "aphid Megoura viciae", "value": 1.1, "unit": "p.p.m."}, {"measurement": "ACTIVITY LD50", "setting": "[2]", "value": 33, "unit": "p.p.m."}, {"measurement": "number of knots on roots", "setting": "[5]", "value": "≤ 2", "unit": "knots"}, {"measurement": "ACTIVITY LD50", "setting": "[3]", "value": 27, "unit": "p.p.m."}, {"measurement": "ACTIVITY LD50", "setting": "[6]", "value": 0.8, "unit": "p.p.m."}]}
